Source: patent US12433952B2, “Antibody-drug conjugates targeting folate receptor alpha and methods of use” (ZYMEWORKS BC INC., priority 2022, dated 2025)
Read-outs that look alike come from different tables or passages of the source.

Legend:
Experiment in all cases: In vitro cytotoxicity of camptothecin analogues (CellTiter-Glo)
Format in all cases: cell-based
[1] = test system: ZR-75-1 (breast cancer); conditions: Homo sapiens, ZR-75-1, 120 h, read-out: pIC50 ZR-75 (converted)
Protocol: (§1) Cytotoxicity of the camptothecin analogues was assessed in vitro as follows.
(§2) In vitro potency was assessed on multiple cancer cell lines: SK-BR-3 (breast cancer), SKOV-3 (ovarian cancer), Calu-3 (lung cancer), ZR-75-1 (breast cancer) and MDA-MB-468 (breast cancer). Serial dilutions of camptothecin analogues were prepared in RPMI 1640+10% FBS, and 20 μL of each dilution was added to 384-well plates. Cells cultured in log-phase growth were detached by brief incubation in 0.05% Trypsin and resuspended in respective culturing media at 20,000 cells/mL (with the exception of ZR-75 cells, which were resuspended at 10,000 cells/mL). 50 μL of cell suspension was then added to the plates containing test articles. Cells were incubated with test articles for 4 d at 37° C. (with the exception of ZR-75 cells, which were incubated for 5 d). Growth inhibition was assessed by CellTiter-Glo® (Promega Corporation, Madison, WI) and luminescence was measured on a plate reader. IC50 values were determined by GraphPad Prism (GraphPad Software, San Diego CA).

[2] = test system: MDA-MB-468 (breast cancer); conditions: Homo sapiens, MDA-MB-468, 96 h, read-out: pIC50 MDA-MB-468 (converted)
Protocol: as §1, §2

[3] = test system: SK-BR-3 (breast cancer); conditions: Homo sapiens, SK-BR-3, 96 h, read-out: pIC50 SKBR-3 (converted)
Protocol: as §1, §2

[4] = test system: Calu-3 (lung cancer); conditions: Homo sapiens, Calu-3, 96 h, read-out: pIC50 Calu-3 (converted)
Protocol: as §1, §2

[5] = test system: SKOV-3 (ovarian cancer); conditions: Homo sapiens, SK-OV-3, 96 h, read-out: pIC50 SKOV-3 (converted)
Protocol: as §1, §2

CC[C@@]1(O)C(=O)OCc2c1cc1n(c2=O)Cc2c-1nc1cc(F)c(N)cc1c2CNC(=O)NCCO [Compound 151, (S)-1-((9-amino-4-ethyl-8-fluoro-4-hydroxy-3,14-dioxo-3,4,12,14-tetrahydro-1H-pyrano[3′,4′:6,7]indolizino[1,2-b]quinolin-11-yl)methyl)-3-(2-hydroxyethyl)urea] showed an IC50 ([1]; 5 d incubation) of 5.89 nM, an IC50 ([2]; 4 d incubation) of 11.5 nM and an IC50 ([3]; 4 d incubation) of 2.69 nM. It also gave an IC50 ([4]; 4 d incubation) of 11.5 nM and an IC50 ([5]; 4 d incubation) of 45.7 nM.
With CC[C@@]1(O)C(=O)OCc2c1cc1n(c2=O)Cc2c-1nc1cc(F)c(C)cc1c2CNC(=O)OCCO [Compound 139, 2-hydroxyethyl (S)-((4-ethyl-8-fluoro-4-hydroxy-9-methyl-3,14-dioxo-3,4,12,14-tetrahydro-1H-pyrano[3′,4′:6,7]indolizino[1,2-b]quinolin-11-yl)methyl)carbamate] the IC50 ([1]; 5 d incubation) was 1.07 nM, the IC50 ([2]; 4 d incubation) was 1.51 nM and the IC50 ([3]; 4 d incubation) was 1.2 nM. It also gave an IC50 ([4]; 4 d incubation) of 7.08 nM and an IC50 ([5]; 4 d incubation) of 5.01 nM.
CC[C@@]1(O)C(=O)OCc2c1cc1n(c2=O)Cc2c-1nc1cc(F)c(C)cc1c2CNS(=O)(=O)c1ccccc1 [Compound 125, (S)—N-((4-ethyl-8-fluoro-4-hydroxy-9-methyl-3,14-dioxo-3,4,12,14-tetrahydro-1H-pyrano[3′,4′:6,7]indolizino[1,2-b]quinolin-11-yl)methyl)benzenesulfonamide] gave an IC50 [1] of 1.32 nM, an IC50 [2] of 3.8 nM and an IC50 [3] of 1.32 nM. The IC50 [4] was 2.82 nM and the IC50 [5] was 7.08 nM.
CC[C@@]1(O)C(=O)OCc2c1cc1n(c2=O)Cc2c-1nc1cc(F)c(N)cc1c2CN1CCOCC1 [Compound 142, (S)-9-amino-4-ethyl-8-fluoro-4-hydroxy-11-(morpholinomethyl)-1,12-dihydro-14H-pyrano[3′,4′:6,7]indolizino[1,2-b]quinoline-3,14(4H)-dione] gave an IC50 ([1]; 5 d incubation) of 0.759 nM, an IC50 ([2]; 4 d incubation) of 1.29 nM and an IC50 ([3]; 4 d incubation) of 0.631 nM. It also gave an IC50 ([4]; 4 d incubation) of 1.29 nM and an IC50 ([5]; 4 d incubation) of 1.29 nM.
Compound CC[C@@]1(O)C(=O)OCc2c1cc1n(c2=O)Cc2c-1nc1cc(F)c(OC)cc1c2CN1CCN(c2ccc(N)cc2)CC1 [Compound 109, (S)-11-((4-(4-aminophenyl)piperazin-1-yl)methyl)-4-ethyl-8-fluoro-4-hydroxy-9-methoxy-1,12-dihydro-14H-pyrano[3′,4′:6,7]indolizino[1,2-b]quinoline-3,14(4H)-dione] has an IC50 ([1]; 5 d incubation) of 5.01 nM, an IC50 ([2]; 4 d incubation) of 8.13 nM and an IC50 ([3]; 4 d incubation) of 5.75 nM. It also gave an IC50 ([5]; 4 d incubation) of 7.08 nM.
Compound CC[C@@]1(O)C(=O)OCc2c1cc1n(c2=O)Cc2c-1nc1cc(F)c(OC)cc1c2CNS(=O)(=O)c1ccccc1 [Compound 126, (S)—N-((4-ethyl-8-fluoro-4-hydroxy-9-methoxy-3,14-dioxo-3,4,12,14-tetrahydro-1H-pyrano[3′,4′:6,7]indolizino[1,2-b]quinolin-11-yl)methyl)benzenesulfonamide] has an IC50 ([1]; 5 d incubation) of 0.724 nM, an IC50 ([2]; 4 d incubation) of 1.95 nM and an IC50 ([3]; 4 d incubation) of 1.1 nM. For the same compound, the IC50 ([4]; 4 d incubation) was 2.95 nM and the IC50 ([5]; 4 d incubation) was 6.31 nM.
For CC[C@@]1(O)C(=O)OCc2c1cc1n(c2=O)Cc2c-1nc1cc(F)c(OC)cc1c2CN1CCOCC1 [Compound 101, (S)-4-ethyl-8-fluoro-4-hydroxy-9-methoxy-11-(morpholinomethyl)-1,12-dihydro-14H-pyrano[3′,4′:6,7]indolizino[1,2-b]quinoline-3,14(4H)-dione], the IC50 ([1]; 5 d incubation) was 1.07 nM, the IC50 ([2]; 4 d incubation) was 2.57 nM and the IC50 ([3]; 4 d incubation) was 1.07 nM. The IC50 ([5]; 4 d incubation) was 1.58 nM.
For CC[C@@]1(O)C(=O)OCc2c1cc1n(c2=O)Cc2c-1nc1cc(F)c(C)cc1c2CN1CCN(S(=O)(=O)c2ccc(N)cc2)CC1 [Compound 104, (S)-11-((4-((4-aminophenyl)sulfonyl)piperazin-1-yl)methyl)-4-ethyl-8-fluoro-4-hydroxy-9-methyl-1,12-dihydro-14H-pyrano[3′,4′:6,7]indolizino[1,2-b]quinoline-3,14(4H)-dione], the IC50 ([1]; 5 d incubation) was 2.57 nM, the IC50 ([2]; 4 d incubation) was 2.63 nM and the IC50 ([3]; 4 d incubation) was 2.69 nM. The IC50 ([4]; 4 d incubation) was 5.25 nM and the IC50 ([5]; 4 d incubation) was 7.76 nM.
CC[C@@]1(O)C(=O)OCc2c1cc1n(c2=O)Cc2c-1nc1cc(F)c(OC)cc1c2CNC(=O)NC [Compound 133, (S)-1-((4-ethyl-8-fluoro-4-hydroxy-9-methoxy-3,14-dioxo-3,4,12,14-tetrahydro-1H-pyrano[3′,4′:6,7]indolizino[1,2-b]quinolin-11-yl)methyl)-3-methylurea] showed an IC50 ([1]; 5 d incubation) of 9.77 nM, an IC50 ([2]; 4 d incubation) of 10.7 nM and an IC50 ([3]; 4 d incubation) of 6.76 nM. The IC50 ([4]; 4 d incubation) was 12 nM and the IC50 ([5]; 4 d incubation) was 74.1 nM.
For CC[C@@]1(O)C(=O)OCc2c1cc1n(c2=O)Cc2c-1nc1cc(F)c(C)cc1c2CNS(C)(=O)=O [Compound 122, (S)—N-((4-ethyl-8-fluoro-4-hydroxy-9-methyl-3,14-dioxo-3,4,12,14-tetrahydro-1H-pyrano[3′,4′:6,7]indolizino[1,2-b]quinolin-11-yl)methyl)methanesulfonamide], the IC50 [1] was 1.29 nM, the IC50 [2] was 1.1 nM and the IC50 [3] was 1.12 nM. For the same compound, the IC50 [4] was 3.72 nM and the IC50 [5] was 9.12 nM.
Compound CC[C@@]1(O)C(=O)OCc2c1cc1n(c2=O)Cc2c-1nc1cc(F)c(OC)cc1c2CN1CCN(S(=O)(=O)c2ccccc2)CC1 [Compound 103, (S)-4-ethyl-8-fluoro-4-hydroxy-9-methoxy-11-((4-(phenylsulfonyl)piperazin-1-yl)methyl)-1,12-dihydro-14H-pyrano[3′,4′:6,7]indolizino[1,2-b]quinoline-3,14(4H)-dione] has an IC50 ([1]; 5 d incubation) of 2.4 nM, an IC50 ([2]; 4 d incubation) of 4.68 nM and an IC50 ([3]; 4 d incubation) of 1.7 nM. It also gave an IC50 ([4]; 4 d incubation) of 2.34 nM and an IC50 ([5]; 4 d incubation) of 4.37 nM.
Work on CC[C@@]1(O)C(=O)OCc2c1cc1n(c2=O)Cc2cc3cc(N)c(F)cc3nc2-1 [Compound 140, (S)-9-amino-4-ethyl-8-fluoro-4-hydroxy-1,12-dihydro-14H-pyrano[3′,4′:6,7]indolizino [1,2-b]quinoline-3,14(4H)-dione] yielded an IC50 ([1]; 5 d incubation) of 0.331 nM, an IC50 ([2]; 4 d incubation) of 0.708 nM and an IC50 ([3]; 4 d incubation) of 0.316 nM. It also gave an IC50 ([4]; 4 d incubation) of 0.309 nM and an IC50 ([5]; 4 d incubation) of 0.457 nM.
CC[C@@]1(O)C(=O)OCc2c1cc1n(c2=O)Cc2c-1nc1cc(F)c(C)cc1c2CN1CCN(S(=O)(=O)c2ccccc2)CC1 [Compound 102, (S)-4-ethyl-8-fluoro-4-hydroxy-9-methyl-11-((4-(phenylsulfonyl)piperazin-1-yl)methyl)-1,12-dihydro-14H-pyrano[3′,4′:6,7]indolizino[1,2-b]quinoline-3,14(4H)-dione] gave an IC50 ([1]; 5 d incubation) of 0.794 nM, an IC50 ([2]; 4 d incubation) of 2.34 nM and an IC50 ([3]; 4 d incubation) of 0.933 nM. It also gave an IC50 ([5]; 4 d incubation) of 2.14 nM.
CC[C@@]1(O)C(=O)OCc2c1cc1n(c2=O)Cc2c-1nc1cc(F)c(N)cc1c2CNS(=O)(=O)CCO [Compound 150, (S)—N-((9-amino-4-ethyl-8-fluoro-4-hydroxy-3,14-dioxo-3,4,12,14-tetrahydro-1H-pyrano[3′,4′:6,7]indolizino[1,2-b]quinolin-11-yl)methyl)-2-hydroxyethane-1-sulfonamide] was tested, and the IC50 ([1]; 5 d incubation) was 6.46 nM, the IC50 ([3]; 4 d incubation) was 7.94 nM and the IC50 ([5]; 4 d incubation) was 63.1 nM.
Work on CC[C@@]1(O)C(=O)OCc2c1cc1n(c2=O)Cc2c-1nc1cc(F)c(OC)cc1c2CNS(=O)(=O)c1ccc(N)cc1 [Compound 128, (S)-4-amino-N-((4-ethyl-8-fluoro-4-hydroxy-9-methoxy-3,14-dioxo-3,4,12,14-tetrahydro-1H-pyrano[3′,4′:6,7]indolizino[1,2-b]quinolin-11-yl)methyl)benzenesulfonamide] yielded an IC50 [1] of 4.27 nM, an IC50 [2] of 8.32 nM and an IC50 [3] of 5.25 nM. It also gave an IC50 [5] of 18.2 nM.
